According to patent US7977304B2, “FK 228 derivates as HDAC inhibitors” (University of Southampton Highfield, priority 2005, dated 2011):

Tested on: MCF7 human breast cancer cells
Assay: Activity Assay 1: CyQuant cell proliferation assay, MCF7
Assay type: cell-based
Experimental: Method; Cell proliferation assays were performed using the CyQuant™ assay system (Molecular Probes, Inc. USA) according to the manufacturer's instructions. This system utilises a proprietary green fluorescent dye which undergoes strong fluorescent enhancement on binding cellular nucleic acids, to allow determination of cell number with a linear detection range between 50 to 250,000 cells. Estrogen receptor positive MCF7 breast cancer cells (ECAAC) and NHDF cells (Cambrex, UK) were plated in 96 well plates, at a density of 1000 cells in 100 μl of cell culture medium per well. Compounds were added a minimum of 5 hours later, in serial dilutions in cell culture medium, in 100 μl volumes at 2× final concentration. Six days later cell culture medium was removed by inversion of the plate onto blotting paper and cells were gently washed once with 200 μl PBS. […] Fluorescence was then measured for each well using a Cytofluor II Fluoresence Multiwell Plate Reader and CytoFluor II software with filters at 480 nm for excitation and 520 nm for emission maxima. Cell proliferation was determined for mean values of duplicate samples as percentages relative to untreated cell samples (=100%). […]
MCF7 and NHDF were incubated with the indicated concentrations of compounds. After 6 days cell growth relative to untreated cells (=100%) was determined using the CyQuant™ assay. […]

For `CC(C)[C@H]1NC(=O)[C@H]2CSSCC/C=C/[C@H](CC(=O)N[C@H](C)C(=O)N2)OC(=O)CNC1=O` [Compound 9A, (E)-(1S,7R,10S,21R)-7-isopropyl-21-methyl-2-oxa-12,13-dithia-5,8,20,23-tetraaza-bicyclo[8.7.6]tricos-16-ene-3,6,9,19,22-pentaone], the IC50 (Homo sapiens, 144 h, MCF7, 6 days, CyQuant, mean ± SD of multiple experiments, read-out: mean IC50 for growth inhibition (±SD), MCF7) was 121 ± 52 nM and the “potency of cancer cell growth inhibition compared with SAHA” value (MCF7, p=0.003, Student's t-test) was “significantly more potent than SAHA”.
